Experimental data published in ChEMBL document CHEMBL1143708, “5-alkynyl analogs of arabinouridine and 2'-deoxyuridine: cytostatic activity against herpes simplex virus and varicella-zoster thymidine kinase gene-transfected cells” (J Med Chem, 2007).
Converted amounts (≈) assume the structure as drawn. The source made the active and inactive calls. The calls are words filed in the database; no cut-off is given here.

Columns and labels:
[1] = Cytotoxicity against E6SM cells assessed as alteration in cell morphology; format: cell-based; settings: human
Human alphaherpesvirus 1 [2] = experiment: Antiviral activity against HSV1 KOS in E6SM cells assessed as reduction of virus-induced cytopathogenicity; format: functional, organism-based; settings: Human alphaherpesvirus 1, KOS
Human alphaherpesvirus 2 = experiment: Antiviral activity against HSV2 G in E6SM cells assessed as reduction of virus-induced cytopathogenicity; format: functional, organism-based; settings: Human alphaherpesvirus 2, G
Human alphaherpesvirus 1 [3] = experiment: Antiviral activity against thymidine kinase-deficient HSV1 B2006 in E6SM cells assessed as reduction of virus-induced cytopathogenicity; format: functional, organism-based; settings: Human alphaherpesvirus 1, B2006, E6SM
Human alphaherpesvirus 1 [4] = experiment: Antiviral activity against thymidine kinase deficient HSV1 VMW1837 in E6SM cells assessed as reduction of virus-induced cytopathogenicity; format: functional, organism-based; settings: Human alphaherpesvirus 1, VMW1837, E6SM
OST = experiment: Inhibition of proliferation of thymidine kinase deficient OST cells; format: functional, cell-based; settings: Homo sapiens
[5] = Inhibition of proliferation of VZV thymidine kinase expressing OSTtk-/VZVtk+ -a cells; format: functional; settings: Homo sapiens
[6] = Inhibition of proliferation of VZV thymidine kinase expressing OSTtk-/VZVtk+ -b cells; format: functional; settings: Homo sapiens
FM3A [7] = experiment: Inhibition of proliferation of thymidine kinase deficient mouse FM3A cells; format: functional, cell-based
FM3A [8] = experiment: Inhibition of proliferation of thymidine kinase deficient mouse FM3A cells expressing HSV1 thymidine kinase; format: functional, cell-based
FM3A [9] = experiment: Inhibition of proliferation of thymidine kinase deficient mouse FM3A cells expressing HSV2 thymidine kinase; format: functional, cell-based
[10] = system: Vesicular stomatitis virus; experiment: Antiviral activity against VSV in HeLa cells at 40 to >400 ug/mL; format: functional, organism-based
Coxsackievirus B4 [11] = experiment: Antiviral activity against Coxsackie virus B4 in HeLa cells at 40 to >400 ug/mL; format: functional, organism-based
[12] = system: Respiratory syncytial virus; experiment: Antiviral activity against Respiratory syncytial virus in HeLa cells at 40 to >400 ug/mL; format: functional, organism-based
Human respirovirus 3 = experiment: Antiviral activity against Parainfluenza 3 virus in vero cells assessed as reduction of virus-induced cytopathicity at 20 to >400 ug/mL; format: functional, organism-based
[13] = system: Mammalian orthoreovirus 1; experiment: Antiviral activity against Reovirus1 in vero cells assessed as reduction of virus-induced cytopathicity at 40 to >400 ug/mL; format: functional, organism-based
Sindbis virus = experiment: Antiviral activity against Sindbis virus in vero cells assessed as reduction of virus-induced cytopathicity at 40 to >400 ug/mL; format: functional, organism-based
Punta Toro virus [14] = experiment: Antiviral activity against Punta Toro virus in vero cells assessed as reduction of virus-induced cytopathicity at 20 to >400 ug/mL; format: functional, organism-based
Human betaherpesvirus 5 [15] = experiment: Antiviral activity against HCMV AD169 in HEL cells assessed as reduction of virus plaque formation; format: functional, organism-based; settings: Human betaherpesvirus 5, AD169, HEL
Human betaherpesvirus 5 [16] = experiment: Antiviral activity against HCMV Davis in HEL cells assessed as reduction of virus plaque formation; format: functional, organism-based; settings: Human betaherpesvirus 5, Davis
[17] = Cytotoxicity against HEL cells assessed as alteration in cell morphology; format: cell-based; settings: human
[18] = Cytotoxicity against HEL cells; format: cell-based; settings: human
Human alphaherpesvirus 3 [19] = experiment: Antiviral activity against TK+ VZV OKA in HEL cells assessed as reduction of virus plaque formation; format: functional, organism-based; settings: Human alphaherpesvirus 3, OKA
Human alphaherpesvirus 3 [20] = experiment: Antiviral activity against TK+ VZV YS in HEL cells assessed as reduction of virus plaque formation; format: functional, organism-based; settings: Human alphaherpesvirus 3, YS
Human alphaherpesvirus 3 [21] = experiment: Antiviral activity against thymidine kinase deficient VZV 07/1 in HEL cells assessed as reduction of virus plaque formation; format: functional, organism-based; settings: Human alphaherpesvirus 3, 07/1, HEL
Human alphaherpesvirus 3 [22] = experiment: Antiviral activity against thymidine kinase deficient VZV YS in HEL cells assessed as reduction of virus plaque formation; format: functional, organism-based; settings: Human alphaherpesvirus 3, YS
[23] = Inhibition of proliferation of mouse FM3A/O cells; format: functional, cell-based
Human alphaherpesvirus 3 [24] = experiment: Antiviral activity against thymidine kinase deficient VZV YS/R in HEL cells assessed as reduction of virus plaque formation; format: functional, organism-based; settings: Human alphaherpesvirus 3, YS/R
[25] = system: Vesicular stomatitis virus; experiment: Antiviral activity against VSV in HeLa cells; format: functional, organism-based
Coxsackievirus B4 [26] = experiment: Antiviral activity against Coxsackie virus B4 in HeLa cells; format: functional, organism-based; settings: Enterovirus B
[27] = system: Respiratory syncytial virus; experiment: Antiviral activity against Respiratory syncytial virus in HeLa cells; format: functional, organism-based; settings: human respiratory syncytial virus
[28] = system: Mammalian orthoreovirus 1; experiment: Antiviral activity against Reovirus1 in vero cells; format: functional, organism-based; settings: Mammalian orthoreovirus 1, Vero
Punta Toro virus [29] = experiment: Antiviral activity against Punta Toro virus in vero cells; format: functional, organism-based

| Compound | MCC [1] | EC50 (Human alphaherpesvirus 1 [2]) | EC50 (Human alphaherpesvirus 2) | EC50 (Human alphaherpesvirus 1 [3]) | EC50 (Human alphaherpesvirus 1 [4]) | IC50 (OST) | IC50 [5] | IC50 [6] | IC50 (FM3A [7]) | IC50 (FM3A [8]) | IC50 (FM3A [9]) | Activity [10] | Activity (Coxsackievirus B4 [11]) | Activity [12] | Activity (Human respirovirus 3) | Activity [13] | EC50 (Human betaherpesvirus 5 [15]) | EC50 (Human betaherpesvirus 5 [16]) | MCC [17] | CC50 [18] | other results |
| --- | --- | --- | --- | --- | --- | --- | --- | --- | --- | --- | --- | --- | --- | --- | --- | --- | --- | --- | --- | --- | --- |
| Nc1nc2c(ncn2COCCO)c(=O)[nH]1 [ACYCLOVIR] | > 400 µg/mL | 0.02 µg/mL (≈ 0.0888 µM) | 0.07 µg/mL (≈ 0.311 µM) | 40 µg/mL (≈ 178 µM) | 7 µg/mL (≈ 31.1 µM) |  |  |  |  |  |  |  |  |  |  |  |  |  |  |  |  |
| O=c1[nH]c(=O)n([C@H]2C[C@H](O)[C@@H](CO)O2)cc1/C=C/Br [BRIVUDINE] | ≥ 400 µg/mL | 0.02 µg/mL (≈ 0.06 µM) | 150 µg/mL (≈ 450 µM) | 40 µg/mL (≈ 120 µM) | 40 µg/mL (≈ 120 µM) | ≥ 250000 nM | 600 nM | 350 nM |  |  |  |  |  |  |  |  |  |  |  |  |  |
| O=c1[nH]c(=O)n([C@@H]2O[C@H](CO)[C@@H](O)C2O)cc1/C=C/Br (single isomer, unassigned) [SORIVUDINE] |  |  |  |  |  | ≥ 250000 nM | 150 nM | 200 nM |  |  |  |  |  |  |  |  |  |  |  |  |  |
| CC(=O)OC[C@H]1O[C@@H](n2cc(C#CI)c(=O)[nH]c2=O)[C@@H](OC(C)=O)[C@@H]1OC(C)=O | 40 µg/mL | 20 µg/mL (≈ 38.4 µM) | 7 µg/mL (≈ 13.5 µM) | > 10 µg/mL | > 10 µg/mL | 5400 nM | 3600 nM | 3900 nM | 20000 nM | 5400 nM | 960 nM | inactive | inactive | inactive | inactive | inactive | > 20000 nM | > 20000 nM | 50 µM | 20000 nM | Activity (Sindbis virus): inactive; Activity (Punta Toro virus [14]): inactive; EC50 (Human alphaherpesvirus 3 [19]): 8500 nM; EC50 (Human alphaherpesvirus 3 [20]): 3100 nM; EC50 (Human alphaherpesvirus 3 [21]): > 20000 nM; EC50 (Human alphaherpesvirus 3 [22]): > 20000 nM; IC50 [23]: 18000 nM |
| Nc1ccn(C[C@@H](CO)OCP(=O)(O)O)c(=O)n1 [CIDOFOVIR] |  |  |  |  |  |  |  |  |  |  |  |  |  |  |  |  | 660 nM | 660 nM |  | 121000 nM |  |
| O=c1[nH]c(=O)n([C@H]2C[C@H](O)[C@@H](CO)O2)cc1C#CI | ≥ 100 µg/mL | 2 µg/mL (≈ 5.29 µM) | 7 µg/mL (≈ 18.5 µM) | 2 µg/mL (≈ 5.29 µM) | 7 µg/mL (≈ 18.5 µM) | 34000 nM | 63 nM | 120 nM | 87000 nM | 160 nM | 350 nM | inactive | inactive | inactive | inactive | inactive | 2500 nM | 580 nM | 200 µM | 760 nM | Activity (Sindbis virus): inactive; Activity (Punta Toro virus [14]): inactive; EC50 (Human alphaherpesvirus 3 [19]): 180 nM; EC50 (Human alphaherpesvirus 3 [20]): 110 nM; EC50 (Human alphaherpesvirus 3 [21]): 890 nM; EC50 (Human alphaherpesvirus 3 [22]): 780 nM; IC50 [23]: 300 nM |
| C[Si](C)(C)C#Cc1cn([C@H]2C[C@H](O)[C@@H](CO)O2)c(=O)[nH]c1=O | > 400 µg/mL | 2 µg/mL (≈ 6.17 µM) | 7 µg/mL (≈ 21.6 µM) | 4 µg/mL (≈ 12.3 µM) | 7 µg/mL (≈ 21.6 µM) | 23000 nM | 41 nM | 200 nM | ≥ 250000 nM | 160 nM | 480 nM | inactive | inactive | inactive | inactive | inactive | 1200 nM | 750 nM | 200 µM | 180 nM | Activity (Sindbis virus): inactive; Activity (Punta Toro virus [14]): inactive; EC50 (Human alphaherpesvirus 3 [19]): 260 nM; EC50 (Human alphaherpesvirus 3 [20]): 150 nM; EC50 (Human alphaherpesvirus 3 [21]): 690 nM; EC50 (Human alphaherpesvirus 3 [22]): 900 nM; IC50 [23]: 230 nM |
| Nc1nc2c(ncn2COC(CO)CO)c(=O)[nH]1 [GANCICLOVIR] | > 100 µg/mL | 0.002 µg/mL (≈ 0.00784 µM) | 0.007 µg/mL (≈ 0.0274 µM) | 0.7 µg/mL (≈ 2.74 µM) | 0.02 µg/mL (≈ 0.0784 µM) |  |  |  |  |  |  |  |  |  |  |  | 6300 nM |  | > 200 µM |  |  |
| C#Cc1cn([C@@H]2O[C@H](CO)[C@@H](O)[C@@H]2O)c(=O)[nH]c1=O | 400 µg/mL |  |  |  |  |  |  |  |  |  |  |  |  |  |  |  |  |  | 200 µM |  |  |
| C[Si](C)(C)C#Cc1cn([C@@H]2O[C@H](CO)[C@@H](O)[C@@H]2O)c(=O)[nH]c1=O | 400 µg/mL | 0.7 µg/mL (≈ 2.06 µM) | 2 µg/mL (≈ 5.88 µM) | 150 µg/mL (≈ 441 µM) | 150 µg/mL (≈ 441 µM) | ≥ 176000 nM | 750 nM | 1900 nM | ≥ 250000 nM | 3800 nM | 290 nM | inactive | inactive | inactive | inactive | inactive | > 50000 nM | > 50000 nM | 200 µM | 127000 nM | Activity (Sindbis virus): inactive; Activity (Punta Toro virus [14]): inactive; EC50 (Human alphaherpesvirus 3 [24]): > 50000 nM; EC50 (Human alphaherpesvirus 3 [19]): 480 nM; EC50 (Human alphaherpesvirus 3 [20]): 330 nM; EC50 (Human alphaherpesvirus 3 [21]): > 50000 nM; IC50 [23]: ≥ 250000 nM |
| NC(=O)c1ncn([C@@H]2O[C@H](CO)[C@@H](O)[C@H]2O)n1 [RIBAVIRIN] | 400 µg/mL | 70 µg/mL (≈ 287 µM) | 150 µg/mL (≈ 614 µM) | 20 µg/mL (≈ 81.9 µM) | 70 µg/mL (≈ 287 µM) |  |  |  |  |  |  |  |  |  |  |  |  |  |  |  | IC50 [25]: 20 µg/mL (≈ 81.9 µM); IC50 (Coxsackievirus B4 [26]): 20 µg/mL (≈ 81.9 µM); IC50 [27]: 2 µg/mL (≈ 8.19 µM); IC50 [28]: 0.7 µg/mL (≈ 2.87 µM); IC50 (Punta Toro virus [29]): 20 µg/mL (≈ 81.9 µM) |
| C#Cc1cn([C@H]2C[C@H](O)[C@@H](CO)O2)c(=O)[nH]c1=O | > 400 µg/mL | 0.7 µg/mL (≈ 2.78 µM) | 2 µg/mL (≈ 7.93 µM) | 0.7 µg/mL (≈ 2.78 µM) | 4 µg/mL (≈ 15.9 µM) | 23000 nM | 83 nM | 160 nM | ≥ 250000 nM | 130 nM | 390 nM | inactive | inactive | inactive | inactive | inactive | 1200 nM | 850 nM | > 200 µM | 2500 nM | Activity (Sindbis virus): inactive; Activity (Punta Toro virus [14]): inactive; EC50 (Human alphaherpesvirus 3 [19]): 160 nM; EC50 (Human alphaherpesvirus 3 [20]): 110 nM; EC50 (Human alphaherpesvirus 3 [21]): 810 nM; EC50 (Human alphaherpesvirus 3 [22]): 750 nM; IC50 [23]: 180 nM |
